Laboratory results: publication PMC6069109, “An Aspartate-Specific Solute-Binding Protein Regulates Protein Kinase G Activity To Control Glutamate Metabolism in Mycobacteria” (mBio, 2018)
Like-named read-outs stand apart in the source and are kept apart here.

Tests used:
Assay type in all cases: binding
GlnH [1] = molecular target: T1, GlnH (Mycobacterium tuberculosis, UniProt P96257); experiment: crystal structure, thermal melt shift
GlnH [2] = molecular target: T1, GlnH; experiment: crystal structure, ITC, thermal melt shift
[3] = molecular target: T2, C. glutamicum GlnH (GlnHcg) (Corynebacterium glutamicum, UniProt Q8NM30); experiment: intrinsic tryptophan fluorescence, thermal melt shift
T2 construct: gene Cgl2750; soluble domain, N-terminal His6 tag
T2 sequence (Q8NM30 entry or part of it): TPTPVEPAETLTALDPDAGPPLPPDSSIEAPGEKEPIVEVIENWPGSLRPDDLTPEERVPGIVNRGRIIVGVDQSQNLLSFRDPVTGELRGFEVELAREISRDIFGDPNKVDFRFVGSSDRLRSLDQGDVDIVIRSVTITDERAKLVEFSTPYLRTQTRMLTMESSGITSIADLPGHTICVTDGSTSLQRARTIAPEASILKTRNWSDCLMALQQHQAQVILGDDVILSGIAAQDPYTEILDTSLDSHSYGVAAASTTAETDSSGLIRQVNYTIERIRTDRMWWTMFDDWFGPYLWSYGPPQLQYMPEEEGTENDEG

T1 sequence (P96257 27-328 limits assumed): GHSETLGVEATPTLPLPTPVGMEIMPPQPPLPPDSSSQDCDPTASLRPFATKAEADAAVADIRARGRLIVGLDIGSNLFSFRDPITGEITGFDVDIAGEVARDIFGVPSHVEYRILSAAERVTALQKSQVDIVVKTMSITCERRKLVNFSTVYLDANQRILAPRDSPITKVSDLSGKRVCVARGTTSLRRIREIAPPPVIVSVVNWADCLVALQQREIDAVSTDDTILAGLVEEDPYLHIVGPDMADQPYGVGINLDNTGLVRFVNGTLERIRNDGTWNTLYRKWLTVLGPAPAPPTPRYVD

NC(=O)C[C@H](N)C(=O)O [asparagine]
crystal structure, thermal melt shift (GlnH [1]): 6H1U (GlnH with Asp), 6H20 (GlnH with Asn), and 6H2T (GlnH with Glu)

N[C@@H](CC(=O)O)C(=O)O [aspartate]
Kd (GlnH [2]; read-out: Kd (μM)^a): 4.8 ± 0.6 µM
Kd ([3]; read-out: Kd (μM)^a): 550 ± 90 µM

N[C@@H](CCC(=O)O)C(=O)O [glutamate]
Kd (GlnH [2]): 15.2 ± 5.7 µM
Kd [3]: 2060 µM
